Laboratory results from paper PMC11571215, “Optimization of Antiproliferative Properties of Triimine Copper(II) Complexes” (Journal of Medicinal Chemistry, 2024).

How the values were obtained:
Assay type in all cases: cell-based, human
[1] = system: HCT116 cells (colorectal carcinoma); assay: MTS cell viability assay, HCT116 2D; conditions: for IC50: 48 h of exposure, MTS, relative IC50, mean + SEM; for SI HCT116: ratio IC50 fibroblasts / IC50 HCT116
Experimental: (§1) The antiproliferative effect of the Cu(II) complexes in tumor and healthy cell lines was assessed through the MTS assay, a colorimetric method that is widely used to evaluate cellular viability, specifically mitochondrial viability.[53],[54] Cellular viability was determined after 48 h exposure to a concentration range (0.1–50 μM) of Cu(II) complexes in three tumor cell lines. […] Additionally, the viability of healthy primary dermal fibroblasts was performed as a comparison of the complexes’ antiproliferative effects in normal cells.
(§2) Cellular viability assays were performed using HCT116, HCT116-DoxR, and A2780 cancer cell lines as well as normal human primary fibroblasts. Cells were seeded at a density of 0.75 × 10^5 cells/mL in 96-well plates and incubated at 37 °C with 5% (v/v) CO2 for 24 h. After this incubation period, the copper complexes were accurately weighed and immediately dissolved in 100% (v/v) dimethyl sulfoxide (DMSO). Subsequently, the complexes were diluted to the final concentration using a cell culture medium. The culture medium in each well was replaced with fresh medium containing varying concentrations of the complexes (ranging from 0.01 to 50 μM). Negative controls contained culture medium with 0.1% (v/v) DMSO, and positive controls contained 0.4 μM Dox.
(§3) After an additional 48 h of incubation under the same conditions, cellular viability was assessed using the CellTiter 96 Aqueous One Solution Cell Proliferation Assay kit (Promega, Madison, USA). Metabolically active cells contain mitochondrial dehydrogenases that can reduce 3-(4,5-dimethylthiazol-2-yl)-5-(3-carboxymethoxyphenyl)-2-(4-sulfophenyl)-2H-tetrazolium, the inner salt (MTS) to formazan. The absorbance of formazan, measured at 490 nm in a microplate reader (Tecan Infinite M200, Tecan, Männedorf, Switzerland), is directly proportional to the number of viable cells.[104]
(§4) The cell viability versus concentration graphics were analyzed using Prism 8 software (GraphPad) to determine the half-maximal inhibitory concentration (IC50) of each complex for the respective cell line. Additionally, the selective index (SI) for each complex was calculated by dividing the IC50 of human fibroblasts by the IC50 values of the tested cancer cell lines.

[2] = system: A2780 cells (ovarian carcinoma); assay: MTS cell viability assay, A2780; conditions: for IC50: 48 h of exposure, MTS, relative IC50, mean + SEM; for SI A2780: ratio IC50 fibroblasts / IC50 A2780
Experimental: as §1, §2, §3, §4

[3] = system: HCT116-DoxR cells; assay: Apoptosis by Annexin V-FITC/PI flow cytometry; conditions: 48 h, complexes at IC50, Dox 6 μM, Cis 5 μM
Experimental: Initially, a quantitative assay with double staining using annexin V-FITC (FITC, fluorescein isothiocyanate) and propidium iodide (PI) through flow cytometry was performed.[24] Annexin V-FITC, a probe with an affinity for the ionic phospholipid phosphatidylserine (PS), predominantly located on the inner side of the plasma membrane in healthy cells, undergoes translocation to the outer plasma membrane during the early stages of apoptosis.[61],[67] In contrast, PI is a DNA intercalating agent that marks cells with compromised plasma membrane (usually in the late stages of apoptosis or in necrosis), emitting red fluorescence upon interaction with nucleic acids.[54],[68] This assay allows for distinguishing cells in four different conditions: viable cells (FITC–, PI−), early apoptosis (FITC+, PI−), late apoptosis (FITC+, PI+), and necrosis (FITC–, PI+).
The Annexin V-FITC Apoptosis Detection Kit (catalog no. V13245, Invitrogen, USA) was used in this study for the induction of apoptosis analysis. HCT116-DoxR cells were seeded in 6-well plates at a cell density of 1 × 10^5 cells/mL and incubated for 24 h, under the same conditions mentioned before. […] After this incubation period, the cells were washed with PBS 1× and trypsinized with TrypLE Express (Invitrogen). The supernatant was discarded, and the pellet was washed with PBS 1×. The cells were resuspended in 1× Annexin V-FITC binding buffer. Subsequently, the samples were incubated at room temperature (RT) with Alexa Fluor 488 annexin V and 100 μg/mL of propidium iodide (PI) in the dark for 15 min. After incubation, 1× Annexin V-FITC binding buffer was added and the samples were analyzed using an Attune Acoustic Focusing Flow Cytometer (Life Technologies, Carlsbad, USA). Results were processed with Attune Cytometric software.

[4] = system: HCT116-DoxR cells; assay: ROS production (H2DCF-DA, flow cytometry); conditions: 48 h; complexes at IC50, Dox 6 μM, Cis 5 μM
Excerpt: The literature widely describes the relationship between the induction of these types of programmed cell death and the production of reactive oxygen species (ROS).[79]−[81] ROS can arise from endogenous or exogenous sources and play a role in carcinogenesis and tumor development, causing DNA damage.[81],[82] The accumulation of high ROS levels results in oxidative stress in cancer cells, a condition that can be exploited by surpassing the intrinsic antioxidant capacity of tumor cells as a targeted therapeutic approach.[75] It is known that Cu(II) complexes induce ROS production.[38] In this regard, the production of reactive oxygen species was quantified in HCT116-DoxR cells using the 2′,7′-dichlorodihydrofluorescein diacetate (H2DCF-DA) probe, which is rapidly oxidized in the presence of ROS, generating the compound 2′,7′-dichlorodihydrofluorescein (DCF), whose fluorescence can be detected by flow cytometry.[71] The fluorescence intensity is directly proportional to the amount of intracellular ROS. […] TBHP is a widely used organic peroxide in oxidative stress studies as it activates caspase-mediated apoptosis and ROS production.[83]
The quantification of reactive oxygen species (ROS) production was performed using the probe dichlorofluorescein diacetate (H2DCF-DA) (molecular probes: reactive oxygen species (ROS) detection reagents, Invitrogen, USA). Briefly, HCT116-DoxR cells were seeded in six-well plates at a density of 1 × 10^5 cells/mL and incubated for 24 h under the conditions mentioned before. After the incubation period, the medium was replaced with fresh medium containing the tested copper complexes at their IC50 concentrations. 0.1% (v/v) DMSO solution was used as the negative control, and 6 μM Dox, 5 μM Cis, and 42 μM Tertbutyl Hydroperoxide (TBHP) were used as positive controls. The cells were incubated again under the same conditions mentioned above for 48 h. Later, the culture medium was removed, cells were washed with PBS 1× and TrypLE Express to detach them and then they were washed again with PBS 1×. After that, cells were incubated in a solution of 10 μM H2DCF-DA in PBS 1x for 20 min at 37 °C. Subsequently, the samples were analyzed by the Attune Acoustic Focusing Flow Cytometer (Life Technologies, Carlsbad, USA), and the obtained data were processed by the respective software (Attune Cytometric software).

IC50 ([1]; Homo sapiens, HCT-116) [nM] | IC50 ([2]; Homo sapiens, A2780) [nM] | SMILES | early apoptosis [3] | late apoptosis [3] | necrosis [3] | viable cells [3] | late apoptosis ([3]; listed as Dox) [%] | necrosis ([3]; listed as Dox) [%] | viable cells ([3]; listed as Dox) | ROS production higher than DMSO control [4] [×] | IC50 [1] [nM] | IC50 [2] [nM] | early apoptosis ([3]; listed as cisplatin) | late apoptosis ([3]; listed as cisplatin) | SI HCT116 [1] | SI A2780 [2]
500 ± 100 | 100 ± 40 | COc1cccc2c1C(=O)c1c(O)c3c(c(O)c1C2=O)C[C@@](O)(C(=O)CO)C[C@@H]3O[C@H]1C[C@H](N)[C@H](O)[C@H](C)O1 [Doxorubicin] | 16.6% ± 5.5 | 13.9% ± 1.9 | 9.8% ± 4.0 | 59.8% ± 3.8 | 13.9 | 9.8 | about 59.8% | 1.8 | – | – | – | – | – | –
– | – | N.N.[Cl][Pt][Cl] [Cisplatin] | 40.1% | 25.8% | 0.9% ± 1.1 | – | – | – | – | 2.2 | 15600 ± 5300 | 1900 ± 200 | 40.1% ± 11.8 | 25.8% ± 7.7 | – | –
– | – | [Cl][Cu-3]12([Cl])[n+]3ccccc3-c3cc(-c4cccc5ccccc45)cc([n+]31)-c1cccc[n+]12 [Cu1a] | – | – | – | 23.1% ± 4.5 | – | – | – | 1.42 | 280 ± 30 | 530 ± 70 | – | – | 33.1 | 17.5
– | – | [Cl][Cu-3]12([Cl])[n+]3ccccc3-c3cc(-c4ccc5ccccc5c4)cc([n+]31)-c1cccc[n+]12 [Cu1b] | – | – | 0.7% ± 0.6 | 59.3% ± 7.8 | – | – | – | 1.48 | 210 ± 50 | 570 ± 60 | – | – | 63.3 | 23.3
